From patent US20110251158A1, “FULLERENE THERAPIES FOR INFLAMMATION AND INHIBITION OF BUILD-UP OF ARTERIAL PLAQUE” (Luna Innovations Incorporated, priority 2008, published 2011)
Read-outs that look alike come from different tables or passages of the source.

Assays:
Solubility = format: physicochemical
U937 monocyte cells = conditions: for % Viability: human
Description: The human monocytic cell line U937 was obtained from the American Type Culture Collection (Manassas, Va., USA). Cells are maintained in RPMI 1640 media enriched with 10% heat-inactivated FBS, 2 mM L-Glutamine, 10 mM HEPES buffer, 0.1 mM non-essential Amino Acids, 1% antibiotic/antimycotic, and 50 uM beta mercaptoethanol at 37° C., 6% CO2.

C70-Tetrapyridine
solubility (Solubility; DI water and phosphate buffered saline): > 2000 µg/mL

O=C1O[C@H]([C@@H](O)CO)C(O)=C1O [Vitamin C]
toxic effects on the viability of serum-starved cell (U937 monocyte cells): did not have toxic effects | % Viability (U937 monocyte cells; 3 day, 0.67 uM): 98.8% ± 0.06 | % Viability (U937 monocyte cells; 3 day, 6.7 uM): 97.4% ± 1.86 | % Viability (U937 monocyte cells; 3 day, 67 uM): 98.2% ± 0.67 | % Viability (U937 monocyte cells; 6 day, 0.67 uM): 93.8% ± 1.09 | % Viability (U937 monocyte cells; 6 day, 6.7 uM): 91.2% ± 0.33 | % Viability (U937 monocyte cells; 6 day, 67 uM): 90.9% ± 0.07 | % Viability (U937 monocyte cells; 9 day, 0.67 uM): 60.9% ± 1.13 | % Viability (U937 monocyte cells; 9 day, 6.7 uM): 61.8% ± 1.10 | % Viability (U937 monocyte cells; 9 day, 67 uM): 60.7% ± 0.28

C70-(DMAE)4
solubility in buffer (Solubility; buffer): moderate solubility

C70-Tetraphosphate
dissolution in aqueous solution (Solubility; slightly basic aqueous solution, pH adjusted to 7.4): remained dissolved
